Activity calls are given as the source filed them. The calls are words filed in the database; no cut-off is given here.
Key:
A2780 [1] = experiment: Inhibition of PBS-induced autophagy in human A2780 cells assessed as decrease in depletion of p62 level preincubated for 1 hr followed by PBS induction measured after 3 hrs by Western blot analysis; type: functional, cell-based
A2780 [2] = experiment: Inhibition of PBS-induced autophagy in human A2780 cells assessed as decrease in LC3-2 level preincubated for 1 hr followed by PBS induction measured after 3 hrs by Western blot analysis; type: functional, cell-based
MCF7 = experiment: Inhibition of chloroquine-induced autophagy in human MCF7 cells assessed as suppression of autophagosome formation at 25 uM after 5 hrs by MDC staining-based fluorescence microscopic analysis; type: functional, cell-based
A2780 [3] = experiment: Inhibition of PBS-induced autophagy in human A2780 cells assessed as decrease in depletion of p62 level at 50 to 100 uM preincubated for 1 hr followed by PBS induction measured after 3 hrs by Western blot analysis; type: functional, cell-based
A2780 [4] = experiment: Inhibition of PBS-induced autophagy in human A2780 cells assessed as decrease in LC3-2 level at 50 to 100 uM preincubated for 1 hr followed by PBS induction measured after 3 hrs by Western blot analysis; type: functional, cell-based
[5] = Cytotoxicity against human NCI60 cells assessed as cell growth at 10 uM after 24 hrs by SRB assay relative to control; type: functional; details: NCI60, 24 h, read-out: Activity

| SMILES | inhibition (A2780 [1]) | inhibition (A2780 [2]) | inhibition (MCF7) | inhibition (A2780 [3]) | inhibition (A2780 [4]) | growth at 10 µM [5] [%] |
| --- | --- | --- | --- | --- | --- | --- |
| O=C(NCCCCc1ccccc1)c1ccc(Cl)cc1Cl | Dose-dependent effect | Dose-dependent effect | Active | – | – | – |
| O=C(NC1CCN(Cc2ccccc2)CC1)c1ccc(Cl)cc1Cl | – | – | – | inactive | inactive | – |
| O=C(NCCCOc1ccccc1)c1cccc2ccccc12 | – | – | Active | Active | Active | – |
| O=C(NCCCCc1ccccc1)c1ccccc1F | – | – | – | Active | Active | – |
| O=C(NCCCCc1ccccc1)c1cccc(Br)c1 | – | – | – | inactive | inactive | – |
| Cc1cccc(CS(=O)(=O)NCc2ccc(N3CCCC3)cc2)c1 | – | – | Active | Active | Active | 90.1 |
| O=C(NCCCCc1ccccc1)c1ccccc1Br | – | – | – | inactive | inactive | – |
| O=C(NCCCc1ccccc1)c1ccccc1 | – | – | – | inactive | inactive | – |
| COc1ccc(NC(=O)C(=O)NCCN2CCN(C(=O)c3ccc(Cl)cc3Cl)CC2)cc1 | – | – | – | inactive | inactive | – |
| Cc1ccc(OCC(=O)Nc2ccc(N3CCN(C(=O)c4ccco4)CC3)cc2)cc1 | – | – | – | Active | Active | – |
| O=C(NCCCCc1ccccc1)c1ccc(Br)cc1 | – | – | – | inactive | inactive | – |
| O=C(CNC(=O)c1ccc(Cl)cc1Cl)OCC(=O)c1ccc(Br)cc1 | – | – | – | inactive | inactive | – |
